From patent publication US10653688B2, “6-(6-membered heteroaryl and aryl)isoquinolin-3-yl carboxamides and preparation and use thereof” (Samumed, LLC, priority 2017, dated 2020) come the findings set out here.

Like-named read-outs stand apart in the source and are kept apart here.

Test [1] has as its system Wnt activity (SW480 colon carcinoma cells stably expressing the Sp5-Luc reporter gene). In words: Wnt activity screening assay (Sp5-Luc reporter gene assay). The note with it: Homo sapiens, 36 to 48 hours. The format is cell-based, human. The source says:
The screening assay for Wnt activity is described as follows. Reporter cell lines can be generated by stably transducing cancer cell lines (e.g., colon cancer) or primary cells (e.g., IEC-6 intestinal cells) with a lentiviral construct that includes a Wnt-responsive promoter driving expression of the firefly luciferase gene.
SW480 colon carcinoma cells were transduced with a lentiviral vector expressing luciferase with a human Sp5 promoter consisting of a sequence of eight TCF/LEF binding sites. SW480 cells stably expressing the Sp5-Luc reporter gene and a hygromycin resistance gene were selected by treatment with 150 μg/mL of hygromycin for 7 days. These stably transduced SW480 cells were expanded in cell culture and used for all further screening activities. […] For Sp5-Luc reporter gene assays, the cells were plated at 4,000 cells/well in 384-well plates with a DMEM medium containing 1% fetal bovine serum, and 1% Penicillin-Streptomycin and incubated for 36 to 48 hours at 37° C. and 5% CO2. Following incubation, 15 μl of BriteLite Plus luminescence reagent (Perkin Elmer) was added to each well of the 384-well assay plates. The plates were placed on an orbital shaker for 2 min and then luminescence was quantified using the Envision (Perkin Elmer) plate reader. Readings were normalized to DMSO only treated cells, and normalized activities were utilized for EC50 calculations using the dose-response log (inhibitor) vs. response-variable slope (four parameters) nonlinear regression feature available in GraphPad Prism 5.0 (or Dotmatics).

Another test concerns the target recombinant GSK3β kinase (Homo sapiens (Human), UniProt P49841). In words: GSK3β kinase assay (Ser/Thr 09 peptide Z-lyte, FRET).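 Further: FRET read-out as coumarin over fluorescein emission ratio, compounds incubated one hour at room temperature, IC50 from dose-response curve fit.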 The format is biochemical.
Test [2] relates to SW480 colon carcinoma cells. In words: Cell viability assay (CellTiter-Glo). The format is cell-based, human. Conditions: Homo sapiens; for EC50: 96 h, four days, CellTiter-Glo. How it is done: SW480 colon carcinoma cells were transduced with a lentiviral vector expressing luciferase with a human Sp5 promoter consisting of a sequence of eight TCF/LEF binding sites. SW480 cells stably expressing the Sp5-Luc reporter gene and a hygromycin resistance gene were selected by treatment with 150 μg/mL of hygromycin for 7 days. These stably transduced SW480 cells were expanded in cell culture and used for all further screening activities.
For the Cell Viability Assays, the cells were plated at 2,000 cells/well in 384-well plates with a DMEM medium containing 1% fetal bovine serum, and 1% Penicillin-Streptomycin and incubated for […] at 37° C. and 5% CO2. Eight replicates of DMSO-treated cells served as controls and cells treated with compound were performed in duplicate.
After incubation, 10 μL of CellTiter-Glo (Promega) was added to each well allowed to incubate for approximately 12 minutes. This reagent “results in cell lysis and generation of a luminescent signal proportional to the amount of ATP present. The amount of ATP is directly proportional to the number of cells present in culture, in agreement with previous reports. The CellTiter-Glo Assay generates a “glow-type” luminescent signal, produced by the luciferase reaction (Promega.com)”.
(Cellular ATP, detected with luciferase, serves as a proxy for viable cell number.)

In test [3] the test system is LL29 cells (primary human fibroblasts derived from IPF patients), α-smooth muscle actin. In words: Inhibition of fibrotic process: TGF-β1-treated primary human fibroblasts, αSMA staining.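 On all read-outs here: controls were TGF-β1-stimulated wells with DMSO vehicle as the positive reference and cells given DMSO alone as the negative reference.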 The format is cell-based. The note with it: Homo sapiens, Fibroblast; for EC50: 96 h, TGF-β1 20 ng/mL, 4 days, % cells positive for αSMA; for inhibition at 10 µM: read-out: percent inhibition at 10 μM (given for EC50 >10 μM), TGF-β1, αSMA, 10 μM.

For test [4], the system named is IL-6 in human peripheral blood mononuclear cells (huPBMCs). In words: IL-6 inhibition in LPS-stimulated human peripheral blood mononuclear cells (HTRF). The format is cell-based. Conditions: Homo sapiens, PBMC; for EC50: LPS 50 ng/mL, 22 hours, IL-6 HTRF; for inhibition at 10 µM: read-out: percent inhibition at 10 μM (given for EC50 >10 μM), LPS, IL-6, 10 μM. How it is done:
Human Peripheral Blood Mononuclear Cells:
Fresh Normal PB MNC (Catalog # PB001, AllCells, Alameda, Calif.) were shipped overnight at 4° C. and resuspended in Roswell Park Memorial Institute (RPMI) 1640 Medium, with GlutaMAX Supplement (Catalog #61870127, ThermoFisher Scientific, Waltham, Mass.) supplemented with 1% Penicillin-Streptomycin (Catalog #15140163, ThermoFisher Scientific, Waltham, Mass.) and 1% fetal bovine serum (FBS) (Catalog #16140089, ThermoFisher Scientific, Waltham, Mass.) assay media.
Fresh normal human peripheral blood mononuclear cells (huPBMCs) were resuspended in 1% FBS-RPMI assay media with 1% Penicillin-Streptomycin 1% to a cell concentration of 1×10e6 cells/mL. […] 50 ng/mL of Lipopolysaccharides from Escherichia coli 0111:B4 (Catalog # L5293-2ML, Sigma-Aldrich, St. Louis, Mo.) was added after 2 hours and cells were incubated for another 22 hours at 37° C.-5% CO2. After 22 hour incubation, a mixture of anti-IL6 XL665 and anti-IL-6 Cryptate diluted in reconstitution buffer (Catalog #62IL6PEC, Cisbio Inc., Bedford, Mass.) was added to each well. Following incubation for 3 hours at room temperature, Homogeneous Time-Resolved Fluorescence (HTRF) was measured using the Envision (Perkin Elmer, Shelton, Conn.) at 665 nm and […]. The ratio of fluorescence at 665 nm to 620 nm was used as a readout for IL-6 quantification. All samples were processed in duplicate. Readings were normalized to DMSO treated cells and normalized activities were utilized for EC50 calculations. EC50 was determined using software generated by Dotmatics Limited (Windhill Bishops Stortford Herts, UK) using the Levenberg-Marquardt 4 parameter fitting procedure with finite different gradients.
In general terms: Time-resolved FRET reads energy transfer from a long-lived donor to a nearby acceptor.

The target in test [5] is recombinant DYRK1A kinase (Homo sapiens (Human), UniProt Q13627). The test is described as follows: DYRK1A kinase assay (Ser/Thr 18 peptide Z-lyte, FRET).
Method: Each compound was dissolved in DMSO as a 10 mM stock and used to prepare compound source plates.
This is a non-radioactive assay using fluorescence resonance energy transfer (FRET) between coumarin and fluorescein to detect kinase activity which is represented as a ratio of coumarin emission/fluorescein emission.
The mixture was allowed to incubate with the representative compounds for one hour at room temperature. All reactions were performed in duplicate. Unphosphorylated (“0% Control”) and phosphorylated (“100% control”) forms of Ser/Thr 18 served as control reactions. Additionally, an 11-point dose-response curve of Staurosporine (luM top) was run to serve as a positive compound control.
After incubation, Development Reagent A was diluted in Development Buffer then added to the reaction and allowed to further incubate for one hour at room temperature.
Dose-response curves were generated and inhibitory concentration (IC50) values were calculated using non-linear regression curve fit in the Dotmatics' Studies Software (Bishops Stortford, UK).
Setting [6] is: GSK3β kinase, head says EC50, method says IC50, ATP 46 μM.
Setting [7] is: DYRK1A kinase, head says EC50, method says IC50, ATP 30 μM.

recombinant GSK3β kinase, sequence (P49841 whole entry): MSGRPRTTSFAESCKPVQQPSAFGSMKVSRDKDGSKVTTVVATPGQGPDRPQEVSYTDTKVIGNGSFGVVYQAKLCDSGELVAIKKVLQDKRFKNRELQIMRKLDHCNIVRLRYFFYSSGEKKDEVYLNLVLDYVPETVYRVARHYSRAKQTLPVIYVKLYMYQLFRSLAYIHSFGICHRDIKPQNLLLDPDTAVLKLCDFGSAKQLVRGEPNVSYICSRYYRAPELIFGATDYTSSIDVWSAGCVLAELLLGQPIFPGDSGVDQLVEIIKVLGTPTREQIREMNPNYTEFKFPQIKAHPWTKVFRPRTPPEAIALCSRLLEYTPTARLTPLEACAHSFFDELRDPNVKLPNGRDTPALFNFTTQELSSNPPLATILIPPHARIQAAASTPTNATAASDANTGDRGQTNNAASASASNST
Method for recombinant GSK3β kinase: Each compound is dissolved in DMSO as a 10 mM stock and used to prepare compound source plates. Serial dilution (1:3, 11-point dose-response curves from 10 M to 0.0003 M) and compound transfer was performed using the ECHO 550 (Labcyte, Sunnyvale, Calif.) into 1536-well black-walled round bottom plates (Corning).
This is a non-radioactive assay using fluorescence resonance energy transfer (FRET) between coumarin and fluorescein to detect kinase activity which is represented as ratio of coumarin emission/fluorescein emission.
The mixture is allowed to incubate with the representative compounds for one hour at room temperature. All reactions were performed in duplicate. Unphosphorylated (“0% Control”) and phosphorylated (“100% control”) forms of Ser/Thr 18 serve as control reactions.
After incubation, diluted Development Buffer is added to the reaction and allowed to further incubate for one hour at room temperature.
Dose-response curves are generated and inhibitory concentration (IC50) values are calculated using non-linear regression curve fit in the Dotmatics' Studies Software (Bishops Stortford, UK).

Usually EC50 stands for the concentration giving half of the maximal effect. One may read the inhibition as the drop in the measured response relative to a control, in per cent. For the compound `CN1CCN(c2cc(C(=O)Nc3cc4cc(-c5cnccn5)ccc4cn3)ccn2)CC1` [Compound 84, 2-(4-Methylpiperazin-1-yl)-N-(6-(pyrazin-2-yl)isoquinolin-3-yl)isonicotinamide], the EC50 was 5830 nM in test [1]; greater than 10000 nM at recombinant GSK3β kinase (setting [6]); 8380 nM in test [2]; greater than 10000 nM in test [3]; greater than 10000 nM in test [4]; 96 nM in test [5] (setting [7]). Also, the results for the inhibition at 10 µM in test [3] and in test [4] were 35.4% and 5.7%, respectively.
With `CN1CCN(c2cc(C(=O)Nc3cc4cc(-c5ccc(N)nc5)ccc4cn3)ccn2)CC1` [Compound 39, N-(6-(6-Aminopyridin-3-yl)isoquinolin-3-yl)-2-(4-methylpiperazin-1-yl) isonicotinamide], the EC50 was 710 nM in test [1]; greater than 10000 nM at recombinant GSK3β kinase; 2720 nM in test [2]; 2480 nM in test [3]; 3390 nM in test [4]; 12 nM in test [5].
Consider `CN1CCC(c2nc(C(=O)Nc3cc4cc(-c5cccnc5)ccc4cn3)co2)CC1` [Compound 142, 2-(1-Methylpiperidin-4-yl)-N-(6-(pyridin-3-yl)isoquinolin-3-yl)oxazole-4-carboxamide], for which the EC50 in test [1] was 3500 nM; on recombinant GSK3β kinase (setting [6]), greater than 10000 nM; in test [2], greater than 10000 nM; in test [3], greater than 10000 nM; in test [4], greater than 10000 nM; in test [5] (setting [7]) it was 689 nM. In addition, the inhibition at 10 µM in test [2] (read-out: percent inhibition at 10 μM (given for EC50 >10 μM), 10 μM) turned out to be 16.9%; in test [3], 8.8%; in test [4], 7.8%.
`O=C(Nc1cc2cc(-c3cncc(CN4CCC(O)CC4)c3)ccc2cn1)c1ccc(F)cc1` [Compound 54, 4-Fluoro-N-(6-(5-((4-hydroxypiperidin-1-yl)methyl)pyridin-3-yl)isoquinolin-3-yl)benzamide]: the EC50 was 382 nM in test [1]; greater than 10000 nM on recombinant GSK3β kinase; 647 nM in test [2]; greater than 10000 nM in test [3]; greater than 10000 nM in test [4]; 3 nM in test [5]. Moreover, the inhibition at 10 µM in test [3] was 11.2%; in test [4], 17.9%.
Regarding `O=C(Nc1cc2cc(-c3cncc(NC4CCNCC4)n3)ccc2cn1)C1CCC1` [Compound 105, N-(6-(6-(Piperidin-4-ylamino)pyrazin-2-yl)isoquinolin-3-yl) cyclobutanecarboxamide], the EC50 stood at 261 nM in test [1]; 56 nM at recombinant GSK3β kinase; 312 nM in test [2]; 226 nM in test [3]; 207 nM in test [4]; 1 nM in test [5].
`CC(C)Nc1cncc(-c2ccc3cnc(NC(=O)c4cn(C5CCN(C(C)C)CC5)nn4)cc3c2)n1` [Compound 96, N-(6-(6-(Isopropylamino)pyrazin-2-yl)isoquinolin-3-yl)-1-(1-isopropylpiperidin-4-yl)-1H-1,2,3-triazole-4-carboxamide]: the EC50 is 28 nM in test [1]; 3000 nM on recombinant GSK3β kinase (setting [6]); 91 nM in test [2]; 152 nM in test [3]; 312 nM in test [4]; 1 nM in test [5] (setting [7]).
On to `CN1CCN(CC(=O)Nc2cc3cc(-c4ccc(C(F)(F)F)nc4)ccc3cn2)CC1` [Compound 30, 2-(4-Methylpiperazin-1-yl)-N-(6-(6-(trifluoromethyl)pyridin-3-yl)isoquinolin-3-yl)acetamide], for which the EC50 in test [1] is 9690 nM; at recombinant GSK3β kinase (setting [6]), greater than 10000 nM; in test [2] it was 8700 nM; in test [3], greater than 10000 nM; in test [4] it was greater than 10000 nM; in test [5] (setting [7]) it was greater than 10000 nM. In addition, the inhibition at 10 µM was 24.9% in test [3] and 5.2% in test [4].
As to `Nc1cncc(-c2ccc3cnc(NC(=O)c4coc(C5CCNCC5)n4)cc3c2)c1` [Compound 148, N-(6-(5-Aminopyridin-3-yl)isoquinolin-3-yl)-2-(piperidin-4-yl)oxazole-4-carboxamide], the EC50 is 266 nM in test [1]; greater than 10000 nM at recombinant GSK3β kinase (setting [6]); 441 nM in test [2]; 1190 nM in test [3]; 1780 nM in test [4]; 12 nM in test [5] (setting [7]).
